Here are results for 23 compounds from patent publication US7932255B2, “2-aminocarbonyl substituted piperazine or diaza-cyclic compounds as apoptosis protein inhibitors (lap) modulators” (Novartis AG, priority 2006, dated 2011).

The target of one assay is T1, XIAP (Homo sapiens, UniProt P98170).
T1 construct: GST
T1 sequence (P98170 248-358 limits assumed, species assumed): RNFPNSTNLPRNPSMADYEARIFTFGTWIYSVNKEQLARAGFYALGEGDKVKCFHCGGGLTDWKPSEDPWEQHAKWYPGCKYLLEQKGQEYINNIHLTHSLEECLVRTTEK
The assay is described as follows: Disruption of the Smac peptide-(XIAP)BIR3 protein-protein interaction (Tables 2 and 3). In kind it is binding.
Settings: not given
Here is the method: IC50 values for Series A compounds for XIAP. An assay capable of measuring disruption of the Smac peptide-(XIAP)BIR3 protein-protein interaction is established in the art as described in Example 2. In this assay IAP Inhibitor compounds compete with an immobilized Smac peptide for occupancy of the BIR3 binding pocket of XIAP. The rationale for this strategy results from the mutually exclusive nature of either Caspase 9 or Smac binding to the BIR3 pocket.
Assays are performed and IC50 values are calculated as follows: […]
IC50 values are calculated by logarithmic regression analysis of the percentage inhibition of each compound at 4 concentrations (usually 3- or 10-fold dilution series starting at 10 μM). In each experiment, the actual inhibition by reference compound is used for normalization of IC50 values to the basis of an average value of the reference inhibitor: Normalized IC50=measured IC50 average ref. IC50/measured ref. IC50
Activity determinations of compounds herein using the testing method described herein and as are well known in the art, are used with the following test compounds of formula (I). […] “Activity” as used herein is defined as having IC50 values for IAP target inhibition of less than 10 μM. Specifically, in the table:
IC50 values for Series B compounds are provided for XIAP. Assays are performed as described above using methods well known in the art.
As for `CN[C@@H](C)C(=O)N[C@H](C(=O)N1CCN(C(=O)Oc2ccc(F)cc2)C[C@H]1C(=O)NC1CCCc2ccccc21)C(C)C` (stereo partly drawn) [Compound 34, (S)-4-[(S)-3-Methyl-2-((S)-2-methylamino-propionylamino)-butyryl]-3-(1,2,3,4-tetrahydro-naphthalen-1-ylcarbamoyl)-piperazine-1-carboxylic acid 4-fluoro-phenyl ester], the IC50 (usually the concentration that gives 50% inhibition) was < 10 µM.

The assay is the same for the next values; noted with them: Series A compounds, Table 2; read-out: XIAP IC50.
As to `CN[C@@H](C)C(=O)N[C@H](C(=O)N1CCN(Cc2cccc(OC)c2)C[C@H]1C(=O)NC1CCCc2ccccc21)C(C)C` (stereo partly drawn) [Compound 29, (S)-4-(3-Methoxy-benzyl)-1-[(S)-3-methyl-2-((S)-2-methylamino-propionylamino)-butyryl]-piperazine-2-carboxylic acid (1,2,3,4-tetrahydro-naphthalen-1-yl)-amide], the IC50 is < 10 µM.

`CN[C@@H](C)C(=O)N[C@H](C(=O)N1CCN(C(=O)OCc2ccccc2)C[C@H]1C(=O)NC1CCCc2ccccc21)C(C)C` (stereo partly drawn) [Compound 13, (S)-4-[(S)-3-Methyl-2-((S)-2-methylamino-propionylamino)-butyryl]-3-(1,2,3,4-tetrahydro-naphthalen-1-ylcarbamoyl)-piperazine-1-carboxylic acid benzyl ester]: the 50% inhibitory concentration (IC50) is < 10 µM.

As for `CN[C@@H](C)C(=O)N[C@H](C(=O)N1CCN(C(=O)N(C)c2ccccc2)C[C@H]1C(=O)NC1CCCc2ccccc21)C(C)C` (stereo partly drawn) [Compound 50, (S)-4-[(S)-3-Methyl-2-((S)-2-methylamino-propionylamino)-butyryl]-piperazine-1,3-dicarboxylic acid 1-(methyl-phenyl-amide) 3-[(1,2,3,4-tetrahydro-naphthalen-1-yl)-amide]], the IC50 was < 10 µM.

On to `C[C@@H](C(=O)N[C@H](C(=O)N1CCN(Cc2ccccc2)C[C@H]1C(=O)N[C@@H]1CCCc2ccccc21)C1CCCCC1)N(C)C(=O)OC(C)(C)C` [Compound 58, [(S)-1-((S)-2-{(S)-4-Benzyl-2-[(R)-(1,2,3,4-tetrahydro-naphthalen-1-yl)carbamoyl]-piperazin-1-yl}-1-cyclohexyl-2-oxo-ethylcarbamoyl)-ethyl]-methyl-carbamic acid tert-butyl ester], for which the IC50 was > 10 µM.

`CN[C@@H](C)C(=O)N[C@H](C(=O)N1CCN(Cc2cncs2)C[C@H]1C(=O)NC1CCCc2ccccc21)C(C)C` (stereo partly drawn) [Compound 22, (S)-1-[(S)-3-Methyl-2-((S)-2-methylamino-propionylamino)-butyryl]-4-thiazol-5-ylmethyl-piperazine-2-carboxylic acid (1,2,3,4-tetrahydro-naphthalen-1-yl)-amide]: the IC50 is < 10 µM.

On to `CN[C@@H](C)C(=O)N[C@H](C(=O)N1CCN(S(=O)(=O)C2CCCCC2)C[C@H]1C(=O)NC1CCCc2ccccc21)C(C)C` (stereo partly drawn) [Compound 11, (S)-4-Cyclohexanesulfonyl-1-[(S)-3-methyl-2-((S)-2-methylamino-propionylamino)-butyryl]-piperazine-2-carboxylic acid (1,2,3,4-tetrahydro-naphthalen-1-yl)-amide], for which the IC50 is < 10 µM.

Turning to `CCN1CCN(C(=O)[C@@H](NC(=O)[C@H](C)NC)C(C)C)[C@H](C(=O)NC2CCCc3ccccc32)C1` (stereo partly drawn) [Compound 32, (S)-4-Ethyl-1-[(S)-3-methyl-2-((S)-2-methylamino-propionylamino)-butyryl]-piperazine-2-carboxylic acid (1,2,3,4-tetrahydro-naphthalen-1-yl)-amide], the half-maximal inhibitory concentration (IC50) is < 10 µM.

`CN[C@@H](C)C(=O)N[C@H](C(=O)N1CCN(Cc2ccccc2)C[C@H]1C(=O)NC1CCCc2ccccc21)C(C)C` (stereo partly drawn) [Compound 54, (S)-4-Benzyl-1-[(S)-3-methyl-2-((S)-2-methylamino-propionylamino)-butyryl]-piperazine-2-carboxylic acid (1,2,3,4-tetrahydro-naphthalen-1-yl)-amide]: the IC50 was < 10 µM.

On to `CN[C@@H](C)C(=O)N[C@H](C(=O)N1CCN(Cc2ccccc2Cl)C[C@H]1C(=O)NC1CCCc2ccccc21)C(C)C` (stereo partly drawn) [Compound 45, (S)-4-(2-Chloro-benzyl)-1-[(S)-3-methyl-2-((S)-2-methylamino-propionylamino)-butyryl]-piperazine-2-carboxylic acid (1,2,3,4-tetrahydro-naphthalen-1-yl)-amide], for which the IC50 was < 10 µM.

In the case of `CN[C@@H](C)C(=O)N[C@H](C(=O)N1CCN(C(=O)NC(C)(C)C)C[C@H]1C(=O)NC1CCCc2ccccc21)C(C)C` (stereo partly drawn) [Compound 39, (S)-4-[(S)-3-Methyl-2-((S)-2-methylamino-propionylamino)-butyryl]-piperazine-1,3-dicarboxylic acid 1-tert-butylamide 3-[(1,2,3,4-tetrahydro-naphthalen-1-yl)-amide]], the IC50 is < 10 µM.

As for `CN[C@@H](C)C(=O)N[C@H](C(=O)N1CCN(C(=O)c2ccc(NC(C)=O)cc2)C[C@H]1C(=O)NC1CCCc2ccccc21)C(C)C` (stereo partly drawn) [Compound 27, (S)-4-(4-Acetylamino-benzoyl)-1-[(S)-3-methyl-2-((S)-2-methylamino-propionylamino)-butyryl]-piperazine-2-carboxylic acid (1,2,3,4-tetrahydro-naphthalen-1-yl)-amide], the IC50 was < 10 µM.

As for `CN[C@@H](C)C(=O)N[C@H](C(=O)N1CCN(Cc2ccncc2)C[C@H]1C(=O)NC1CCCc2ccccc21)C(C)C` (stereo partly drawn) [Compound 9, (S)-1-[(S)-3-Methyl-2-((S)-2-methylamino-propionylamino)-butyryl]-4-pyridin-4-ylmethyl-piperazine-2-carboxylic acid (1,2,3,4-tetrahydro-naphthalen-1-yl)-amide], the IC50 was < 10 µM.

For the compound `CN[C@@H](C)C(=O)N[C@H](C(=O)N1CCN(C(=O)Nc2ccc(F)cc2)C[C@H]1C(=O)NC1CCCc2ccccc21)C(C)C` (stereo partly drawn) [Compound 40, (S)-4-[(S)-3-Methyl-2-((S)-2-methylamino-propionylamino)-butyryl]-piperazine-1,3-dicarboxylic acid 1-[(4-fluoro-phenyl)-amide] 3-[(1,2,3,4-tetrahydro-naphthalen-1-yl)-amide]], the IC50 was < 10 µM.

Staying with this assay, now noted: Series B compounds, Table 3; read-out: XIXP IC50.
Take `CN[C@@H](C)C(=O)N[C@H](C(=O)N1CCN(Cc2ccccc2)C[C@H]1C(=O)NCC1CCCCC1)C(C)C` [Compound 79, (S)-4-Benzyl-1-[(S)-3-methyl-2-((S)-2-methylamino-propionylamino)-butyryl]-piperazine-2-carboxylic acid cyclohexylmethyl-amide]: the IC50 was < 10 µM.

With `CN[C@@H](C)C(=O)N[C@H](C(=O)N1CCN(Cc2ccccc2)C[C@H]1C(=O)NCC1CCCC1)C(C)C` [Compound 81, (S)-4-Benzyl-1-[(S)-3-methyl-2-((S)-2-methylamino-propionylamino)-butyryl]-piperazine-2-carboxylic acid cyclopentylmethyl-amide], the IC50 was < 10 µM.

For the compound `CN[C@@H](C)C(=O)N[C@H](C(=O)N1CCN(Cc2ccccc2)C[C@H]1C(=O)NC1Cc2ccccc2C1)C(C)C` [Compound 78, (S)-4-Benzyl-1-[(S)-3-methyl-2-((S)-2-methylamino-propionylamino)-butyryl]-piperazine-2-carboxylic acid indan-2-ylamide], the IC50 is < 10 µM.

In the case of `CN[C@@H](C)C(=O)N[C@H](C(=O)N1CCN(Cc2ccccc2)C[C@H]1C(=O)NC1c2ccccc2-c2ccccc21)C(C)C` [Compound 75, (S)-4-Benzyl-1-[(S)-3-methyl-2-((S)-2-methylamino-propionylamino)-butyryl]-piperazine-2-carboxylic acid (9H-fluoren-9-yl)-amide], the IC50 was < 10 µM.

Regarding `CN[C@@H](C)C(=O)N[C@H](C(=O)N1CCN(Cc2ccccc2)C[C@H]1C(=O)N1CCc2ccccc2C1)C(C)C` [Compound 86, (S)-N-{(S)-1-[(S)-4-Benzyl-2-(3,4-dihydro-1H-isoquinoline-2-carbonyl)-piperazine-1-carbonyl]-2-methyl-propyl}-2-methylamino-propionamide], the IC50 was < 10 µM.

Take `CN[C@@H](C)C(=O)N[C@H](C(=O)N1CCN(Cc2ccccc2)C[C@H]1C(=O)N[C@H](C)c1ccccc1)C(C)C` [Compound 87, (S)-4-Benzyl-1-[(S)-3-methyl-2-((S)-2-methylamino-propionylamino)-butyryl]-piperazine-2-carboxylic acid ((R)-1-phenyl-ethyl)-amide]: the IC50 is < 10 µM.

Turning to `CN[C@@H](C)C(=O)N[C@H](C(=O)N1CCN(Cc2ccccc2)C[C@H]1C(=O)NCCc1ccccc1)C(C)C` [Compound 61, (S)-4-Benzyl-1-[(S)-3-methyl-2-((S)-2-methylamino-propionylamino)-butyryl]-piperazine-2-carboxylic acid phenethyl-amide], the IC50 was < 10 µM.

Take `CN[C@@H](C)C(=O)N[C@H](C(=O)N1CCN(Cc2ccccc2)C[C@H]1C(=O)NCc1nccs1)C(C)C` [Compound 73, (S)-4-Benzyl-1-[(S)-3-methyl-2-((S)-2-methylamino-propionylamino)-butyryl]-piperazine-2-carboxylic acid (thiazol-2-ylmethyl)-amide]: the IC50 was > 10 µM.

Consider `CN[C@@H](C)C(=O)N[C@H](C(=O)N1CCN(Cc2ccccc2)C[C@H]1C(=O)NCc1ccco1)C(C)C` [Compound 82, (S)-4-Benzyl-1-[(S)-3-methyl-2-((S)-2-methylamino-propionylamino)-butyryl]-piperazine-2-carboxylic acid (furan-2-ylmethyl)-amide], for which the IC50 is < 10 µM.
